From patent US20250090695A1, “IMMUNOSTIMULANT-CYTOTOXIC CONJUGATE COMPOSITION AND METHODS FOR CANCER TREATMENT” (The Research Foundation for the State University of New York, priority 2022, published 2025)

Legend:
[1] = OLINDA dosimetry to adult male from mouse biodistribution
[2] = biological target: T1, PSMA (Homo sapiens, UniProt Q04609); settings: clinical trials; cited from earlier work
T1 construct: This has been leveraged in clinical trials using the radiotherapeutic 117Lu-PSMA-617; host or cells: tumours of prostate cancer patients
T1 sequence (Q04609 whole entry): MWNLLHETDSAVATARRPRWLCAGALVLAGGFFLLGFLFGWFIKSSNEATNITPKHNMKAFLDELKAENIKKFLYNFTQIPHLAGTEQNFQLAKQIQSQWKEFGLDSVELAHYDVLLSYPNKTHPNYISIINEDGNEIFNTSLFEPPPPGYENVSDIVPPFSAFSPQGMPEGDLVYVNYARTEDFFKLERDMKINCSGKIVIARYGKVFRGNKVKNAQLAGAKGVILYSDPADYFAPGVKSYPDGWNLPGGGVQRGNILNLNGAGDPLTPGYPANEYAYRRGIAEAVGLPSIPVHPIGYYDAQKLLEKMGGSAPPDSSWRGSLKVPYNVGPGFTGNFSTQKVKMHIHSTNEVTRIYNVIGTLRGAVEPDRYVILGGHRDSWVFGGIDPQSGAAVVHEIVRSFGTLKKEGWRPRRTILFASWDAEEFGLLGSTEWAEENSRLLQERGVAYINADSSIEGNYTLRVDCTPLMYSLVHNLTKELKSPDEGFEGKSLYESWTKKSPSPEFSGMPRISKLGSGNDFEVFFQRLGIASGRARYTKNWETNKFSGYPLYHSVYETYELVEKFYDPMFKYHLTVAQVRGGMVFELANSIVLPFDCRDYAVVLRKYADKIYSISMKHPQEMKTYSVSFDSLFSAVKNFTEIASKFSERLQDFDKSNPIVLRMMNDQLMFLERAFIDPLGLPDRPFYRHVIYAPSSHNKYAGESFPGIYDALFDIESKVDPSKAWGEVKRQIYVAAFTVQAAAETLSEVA

[3] = Biodistribution in a syngeneic model of prostate cancer with a RM1-PGLS tumor; settings: C57BL/6J mice

O=C([O-])CN1CCN(CC(=O)[O-])CCN(CC(=O)NCC2CCC(C(=O)N[C@@H](Cc3ccc4ccccc4c3)C(=O)NCCCC[C@H](NC(=O)N[C@@H](CCC(=O)O)C(=O)O)C(=O)O)CC2)CCN(CC(=O)[O-])CC1.[177Lu+3] (stereo partly shown) [^177Lu-PSMA-617]
OLINDA dosimetry to Adult Male, Brain ([1]; Target Organ Brain): 0.00 μSv/MBq
OLINDA dosimetry to Adult Male, Esophagus ([1]; Target Organ Esophagus): 0.25 μSv/MBq
OLINDA dosimetry to Adult Male, Eyes ([1]; Target Organ Eyes): 0.00 μSv/MBq
OLINDA dosimetry to Adult Male, Gallbladder Wall ([1]; Target Organ Gallbladder Wall): 0.93 μSv/MBq
OLINDA dosimetry to Adult Male, Heart Wall ([1]; Target Organ Heart Wall): 1.57 μSv/MBq
OLINDA dosimetry to Adult Male, Kidneys ([1]; Target Organ Kidneys): 54.70 μSv/MBq
OLINDA dosimetry to Adult Male, Left Colon ([1]; Target Organ Left Colon): 0.18 μSv/MBq
OLINDA dosimetry to Adult Male, Liver ([1]; Target Organ Liver): 27.80 μSv/MBq
OLINDA dosimetry to Adult Male, Lungs ([1]; Target Organ Lungs): 2.43 μSv/MBq
OLINDA dosimetry to Adult Male, Osteogenic Cells ([1]; Target Organ Osteogenic Cells): 0.83 μSv/MBq
OLINDA dosimetry to Adult Male, Pancreas ([1]; Target Organ Pancreas): 0.32 μSv/MBq
OLINDA dosimetry to Adult Male, Prostate ([1]; Target Organ Prostate): 0.10 μSv/MBq
OLINDA dosimetry to Adult Male, Rectum ([1]; Target Organ Rectum): 0.07 μSv/MBq
OLINDA dosimetry to Adult Male, Red Marrow ([1]; Target Organ Red Marrow): 0.10 μSv/MBq
OLINDA dosimetry to Adult Male, Right Colon ([1]; Target Organ Right Colon): 0.27 μSv/MBq
OLINDA dosimetry to Adult Male, Salivary Glands ([1]; Target Organ Salivary Glands): 0.01 μSv/MBq
OLINDA dosimetry to Adult Male, Small Intestine ([1]; Target Organ Small Intestine): 1.54 μSv/MBq
OLINDA dosimetry to Adult Male, Spleen ([1]; Target Organ Spleen): 0.25 μSv/MBq
OLINDA dosimetry to Adult Male, Stomach Wall ([1]; Target Organ Stomach Wall): 0.23 μSv/MBq
OLINDA dosimetry to Adult Male, Thymus ([1]; Target Organ Thymus): 0.11 μSv/MBq
OLINDA dosimetry to Adult Male, Thyroid ([1]; Target Organ Thyroid): 0.05 μSv/MBq
OLINDA dosimetry to Adult Male, Today Body ([1]; Target Organ Total Body): 1.13 μSv/MBq
OLINDA dosimetry to Adult Male, Tumor ([1]; Target Organ Tumor): 145.00 μSv/MBq
OLINDA dosimetry to Adult Male, Urinary Bladder Wall ([1]; Target Organ Urinary Bladder Wall): 7.66 μSv/MBq
Non-responders among patients [2]: 30%
Biodistribution Blood (% ID/g ± SD) ([3]; 2 h): 0.03 ± 0.02 % ID/g
Biodistribution Bone (% ID/g ± SD) ([3]; 2 h): 0.05 ± 0.05 % ID/g
Biodistribution Heart (% ID/g ± SD) ([3]; 2 h): 0.03 ± 0.01 % ID/g
Biodistribution Kidney (% ID/g ± SD) ([3]; 2 h): 1.39 ± 0.48 % ID/g
Biodistribution Liver (% ID/g ± SD) ([3]; 2 h): 0.17 ± 0.12 % ID/g
Biodistribution Muscle (% ID/g ± SD) ([3]; 2 h): 0.05 ± 0.05 % ID/g
Biodistribution RM1-PGLS tumor (% ID/g ± SD) ([3]; 2 h): 0.80 ± 0.18 % ID/g
Biodistribution Sm Int (% ID/g ± SD) ([3]; 2 h): 0.03 ± 0.01 % ID/g
Biodistribution Spleen (% ID/g ± SD) ([3]; 2 h): 0.08 ± 0.03 % ID/g
Biodistribution Blood (% ID/g ± SD) ([3]; 24 h): 0.00 ± 0.00 % ID/g
Biodistribution Bone (% ID/g ± SD) ([3]; 24 h): 0.01 ± 0.01 % ID/g
Biodistribution Heart (% ID/g ± SD) ([3]; 24 h): 0.01 ± 0.00 % ID/g
Biodistribution Kidney (% ID/g ± SD) ([3]; 24 h): 0.09 ± 0.07 % ID/g
Biodistribution Liver (% ID/g ± SD) ([3]; 24 h): 0.02 ± 0.01 % ID/g
Biodistribution Muscle (% ID/g ± SD) ([3]; 24 h): 0.01 ± 0.01 % ID/g
Biodistribution RM1-PGLS tumor (% ID/g ± SD) ([3]; 24 h): 0.25 ± 0.09 % ID/g
Biodistribution Sm Int (% ID/g ± SD) ([3]; 24 h): 0.01 ± 0.01 % ID/g
Biodistribution Spleen (% ID/g ± SD) ([3]; 24 h): 0.02 ± 0.01 % ID/g
Biodistribution Blood (% ID/g ± SD) ([3]; 72 h): 0.01 ± 0.01 % ID/g
Biodistribution Bone (% ID/g ± SD) ([3]; 72 h): 0.01 ± 0.01 % ID/g
Biodistribution Heart (% ID/g ± SD) ([3]; 72 h): 0.01 ± 0.00 % ID/g
Biodistribution Kidney (% ID/g ± SD) ([3]; 72 h): 0.04 ± 0.01 % ID/g
Biodistribution Liver (% ID/g ± SD) ([3]; 72 h): 0.02 ± 0.01 % ID/g
Biodistribution Muscle (% ID/g ± SD) ([3]; 72 h): 0.01 ± 0.00 % ID/g
Biodistribution RM1-PGLS tumor (% ID/g ± SD) ([3]; 72 h): 0.18 ± 0.06 % ID/g
Biodistribution Sm Int (% ID/g ± SD) ([3]; 72 h): 0.02 ± 0.01 % ID/g
Biodistribution Spleen (% ID/g ± SD) ([3]; 72 h): 0.02 ± 0.01 % ID/g
